Assay results published in patent US6632816B1, “Aromatic derivatives as HIV aspartyl protease inhibitors” (Pharmacor Inc., priority 2002, dated 2003).

What was measured:
HIV protease = HIV protease (Human immunodeficiency virus type 1 group M subtype B, UniProt P04585); test: biochemical
Excerpt: Enzymatic Assay for Determining the Inhibition Constant (Ki) of Synthetic Compounds Targeting the HIV Protease
This is a fluorometric assay based on the cleavage by protease of a substrate carrying a donor group (EDANS) and an acceptor group (DABCYL) on each side of the cleavage site, interacting together through fluorescence resonance energy transfer (FRET) as described by Matayoshi et al. (Science 247:954-954, 1990).
After calculation of Vo and Vi, the inhibition constant (Ki) of the compound is determined using the equation of Henderson: [formula]
where Vo=the enzyme's initial velocity
Vi=the enzyme velocity in the presence of the inhibitory compound,
[I]=inhibitor concentration, [S]=substrate concentration,
Km=Michaelis-Menten constant and Kiapp=apparent Ki
Graphs are traced and the Ki determined using GraphPad Prism software v.

[1] = system: HIV-1 laboratory viral strain NL4.3 (wild type virus); test: Anti-viral assay in vitro (MTT, infected MT-4 cells); format: cell-based; conditions: Human immunodeficiency virus 1, MT4, 144 h; MT-4 cells infected with NL4.3, six days, MTT assay; read-out: EC50
Experimental: Anti-viral and Cytotoxicity Assays In Vitro
To evaluate the EC50 of our compounds, various drug concentrations are incubated with the infected cell for six days and then the metabolic activity of the cells is monitored by the MTT assay. (See A. J. Japour et al, Antimicrobial Agents and Chemotherapy, 37, 1095-1101, 1993 and R. Pauwels et al. Journal of Virological Methods, 20, 309-321, 1988)
We use the laboratory viral strain NL4.3 as wild type virus and the cell line used is MT-4 which is a T-cell line highly sensitive to HIV-1. We also use some WT clinical strains. To address the resistance issue we assay the inhibitors with NL4.3 mutants which are designed to be resistant to specific commercially,available inhibitors

Compound | Ki (HIV protease) [nM] | EC50 [1] [nM]
COC(=O)N[C@@H](Cc1ccc2ccccc2c1)C(=O)NCCC[C@@H](CO)N(CC(C)C)S(=O)(=O)c1ccc(N)cc1 [Example 1, (1S,4S)-(1-{4-[(4-Amino-benzenesulfonyl)-isobutyl-amino]-5-hydroxy-pentylcarbamoyl}-2-naphthalen-2-yl-ethyl)-carbamic Acid Methyl Ester] | 7.3 | 1470
COC(=O)N[C@@H](Cc1cccc2ccccc12)C(=O)NCCC[C@@H](CO)N(CC(C)C)S(=O)(=O)c1ccc(N)cc1 [Example 2, (1S,4S)-(1-{4-[(4-Amino-benzenesulfonyl)-isobutyl-amino]-5-hydroxy-pentylcarbamoyl}-2-naphthalen-1-yl-ethyl)-carbamic Acid Methyl Ester] | 2.8 | 674
COC(=O)NC(Cc1ccccc1-c1ccccc1)C(=O)NCCCC(CO)N(CC(C)C)S(=O)(=O)c1ccc(N)cc1 [Example 3, (1R,S,4S)-(1-{4-[(4-Amino-benzenesulfonyl)-isobutyl-amino]-5-hydroxy-pentylcarbamoyl}-2-biphenyl-2-yl-ethyl)-carbamic Acid Methyl Ester] | 2.4 | 64
CC(C)CN([C@H](CO)CCCNC(=O)[C@H](Cc1cccc2ccccc12)NC(=O)N1CCOCC1)S(=O)(=O)c1ccc(N)cc1 [Example 4, (1S,4S)-Morpholine-4-carboxylic Acid (1-{4-[(4-Amino-benzenesulfonyl)-isobutyl-amino]-5-hydroxy-pentylcarbamoyl}-2-naphthalen-1-yl-ethyl)-amide] | 1.4 | 728
CC(C)CN([C@H](CO)CCCNC(=O)[C@@H](NC(=O)N1CCOCC1)C(c1ccccc1)c1ccccc1)S(=O)(=O)c1ccc(N)cc1 [Example 9, (1S,4S)-Morpholine-4-carboxylic Acid (1-{4-[(4-Amino-benzenesulfonyl)-isobutyl-amino]-5-hydroxy-pentylcarbamoyl}-2,2-diphenyl-ethyl)-amide] | 4.2 | 1300
COC(=O)N[C@H](C(=O)NCCC[C@@H](CO)N(CC(C)C)S(=O)(=O)c1ccc(N)cc1)C(c1ccccc1)c1ccccc1 [Example 10, (1S,4S)-(1-{4-[(4-Amino-benzenesulfonyl)-isobutyl-amino]-5-hydroxy-pentylcarbamoyl}-2,2-diphenyl-ethyl)-carbamic Acid Methyl Ester] | 5 | 514
COC(=O)C(=O)N[C@@H](Cc1cccc2ccccc12)C(=O)NCCC[C@@H](CO)N(CC(C)C)S(=O)(=O)c1ccc(N)cc1 [Example 11, (1S,4S)-N-(1-{4-[(4-Amino-benzenesulfonyl)-isobutyl-amino]-5-hydroxy-pentylcarbamoyl}-2-naphthalen-1-yl-ethyl)-oxalamic Acid Methyl Ester] | 5 | 64000
CC(C)CN([C@H](CO)CCCNC(=O)[C@H](Cc1cccc2ccccc12)NC(=O)CC(F)(F)F)S(=O)(=O)c1ccc(N)cc1 [Example 12, (1S,4S)-N-(1-{4-[(4-Amino-benzenesulfonyl)-isobutyl-amino]-5-hydroxy-pentylcarbamoyl}-2-naphthalen-1-yl-ethyl)-3,3,3-trifluoro-propionamide] | – | 747
COC(=O)N[C@@H](Cc1ccccc1-c1ccc(OC)cc1)C(=O)NCCCC[C@@H](CO)N(CC(C)C)S(=O)(=O)c1ccc(N)cc1 [Example 31, (1S,5S)-[1-{5-[(4-Amino-benzenesulfonyl)-isobutyl-amino]-6-hydroxy-hexylcarbamoyl}-2-(4′-methoxy-biphenyl-2-yl)-ethyl]-carbamic Acid Methyl Ester] | 0.667 | 118
CC(C)CN([C@H](CO)CCCCNC(=O)[C@H](Cc1cccc2ccccc12)NC(=O)N1CCOCC1)S(=O)(=O)c1ccc(N)cc1 [Example 32, (1S,5S)-Morpholine-4-carboxylic Acid (1-{5-[(4-Amino-benzenesulfonyl)-isobutyl-amino]-6-hydroxy-hexylcarbamoyl}-2-naphthalen-1-yl-ethyl)-amide] | 0.782 | 30
CC(C)CN([C@H](CO)CCCCNC(=O)[C@H](Cc1ccc2ccccc2c1)NC(=O)CC(F)(F)F)S(=O)(=O)c1ccc(N)cc1 [Example 61, (1S,5S)-N-(1-{5-[(4-Amino-benzenesulfonyl)-isobutyl-amino]-6-hydroxy-hexylcarbamoyl}-2-naphthalen-2-yl-ethyl)-3,3,3-trifluoro-propionamide] | – | 161
COC(=O)N[C@H](C(=O)NCCCC[C@@H](CO)N(CC(C)C)S(=O)(=O)c1ccc2c(c1)OCO2)C(c1ccccc1)c1ccccc1 [Example 67, (1S,5S)-(1-{5-[(Benzo[1,3]dioxole-5-sulfonyl)-isobutyl-amino]-6-hydroxy-hexylcarbamoyl}-2,2-diphenyl-ethyl)-carbamic Acid Methyl Ester] | – | 146
CC(C)CN([C@H](CO)CCCCNC(=O)[C@@H](NC(=O)c1cccc(O)c1)C(c1ccccc1)c1ccccc1)S(=O)(=O)c1ccc(N)cc1 [Example 105, (1S,5S)-N-(1-{5-[(4-Amino-benzenesulfonyl)-isobutyl-amino]-6-hydroxy-hexylcarbamoyl}-2,2-diphenyl-ethyl)-3-hydroxy-benzamide] | < 3.8 | –
COc1cc(C(=O)N[C@H](C(=O)NCCCC[C@@H](CO)N(CC(C)C)S(=O)(=O)c2ccc(N)cc2)C(c2ccccc2)c2ccccc2)ccc1O [Example 106, (1S,5S)-N-(1-{5-[(4-Amino-benzenesulfonyl)-isobutyl-amino]-6-hydroxy-hexylcarbamoyl}-2,2-diphenyl-ethyl)-4-hydroxy-3-methoxy-benzamide] | < 3.8 | –
CC(C)CN([C@H](CO)CCCCNC(=O)[C@@H](NC(=O)c1ccc([N+](=O)[O-])c(O)c1)C(c1ccccc1)c1ccccc1)S(=O)(=O)c1ccc(N)cc1 [Example 107, (1S,5S)-N-(1-{5-[(4-Amino-benzenesulfonyl)-isobutyl-amino]-6-hydroxy-hexylcarbamoyl}-2,2-diphenyl-ethyl)-3-hydroxy-4-nitro-benzamide] | < 3.8 | –
CC(C)CN([C@H](CO)CCCCNC(=O)[C@@H](NC(=O)c1ncccc1O)C(c1ccccc1)c1ccccc1)S(=O)(=O)c1ccc(N)cc1 [Example 108, (1S,5S)-3-Hydroxy-pyridine-2-carboxylic Acid-N-(1-{5-[(4-amino-benzenesulfonyl)-isobutyl-amino]-6-hydroxy-hexylcarbamoyl}-2,2-diphenyl-ethyl)-amide] | < 3.8 | –
CC(C)CN([C@H](CO)CCCCNC(=O)[C@@H](NC(=O)c1ccc(N)nc1)C(c1ccccc1)c1ccccc1)S(=O)(=O)c1ccc(N)cc1 [Example 109, (1S,5S)-6-Amino-N-(1-{5-[(4-amino-benzenesulfonyl)-isobutyl-amino]-6-hydroxy-hexylcarbamoyl}-2,2-diphenyl-ethyl)-nicotinamide] | < 3.8 | –
CC(C)CN([C@H](CO)CCCCNC(=O)[C@@H](NC(=O)c1ccc(O)nc1)C(c1ccccc1)c1ccccc1)S(=O)(=O)c1ccc(N)cc1 [Example 110, (1S,5S)-N-(1-{5-[(4-Amino-benzenesulfonyl)-isobutyl-amino]-6-hydroxy-hexylcarbamoyl}-2,2-diphenyl-ethyl)-6-hydroxy-nicotinamide] | < 3.8 | –
Cc1ncccc1C(=O)N[C@H](C(=O)NCCCC[C@@H](CO)N(CC(C)C)S(=O)(=O)c1ccc(N)cc1)C(c1ccccc1)c1ccccc1 [Example 111, (1S,5S)-N-(1-{5-[(4-Amino-benzenesulfonyl)-isobutyl-amino]-6-hydroxy-hexylcarbamoyl}-2,2-diphenyl-ethyl)-2-methyl-nicotinamide] | < 3.8 | –
Cc1ccc(C(=O)N[C@H](C(=O)NCCCC[C@@H](CO)N(CC(C)C)S(=O)(=O)c2ccc(N)cc2)C(c2ccccc2)c2ccccc2)cn1 [Example 112, (1S,5S)-N-(1-{5-[(4-Amino-benzenesulfonyl)-isobutyl-amino]-6-hydroxy-hexylcarbamoyl}-2,2-diphenyl-ethyl)-6-methyl-nicotinamide] | < 3.8 | –
CC(C)CN([C@H](CO)CCCCNC(=O)[C@@H](N)Cc1ccc2ccccc2c1)S(=O)(=O)c1ccc(N)c(F)c1 [Example 113, (2S,5S)-2-Amino-N-{5-[(4-amino-3-fluoro-benzenesulfonyl)-isobutyl-amino]-6-hydroxy-hexyl}-3-naphthalen-2-yl-propionamide] | < 3.8 | –
CC(C)CN([C@H](CO)CCCCNC(=O)[C@H](Cc1ccc2ccccc2c1)NC(=O)c1cnc[nH]1)S(=O)(=O)c1ccc(F)c(N)c1 [Example 114, (1S,5S)-3H-Imidazole-4-carboxylic Acid (1-{5-[(3-Amino-4-fluoro-benzenesulfonyl)-isobutyl-amino]-6-hydroxy-hexylcarbamoyl}-2-naphthalen-2-yl-ethyl)-amide] | < 3.8 | –
CC(C)CN([C@H](CO)CCCCNC(=O)[C@H](Cc1ccc2ccccc2c1)NC(=O)N1CCCC1)S(=O)(=O)c1ccc(F)c(N)c1 [Example 115, (1S,5S)Pyrrolidine-1-carboxylic Acid (1-{5-[(3-Amino-4-fluoro-benzenesulfonyl)-isobutyl-amino]-6-hydroxy-hexylcarbamoyl}-2-naphthalen-2-yl-ethyl)-amide] | < 3.8 | –
COC(=O)N[C@@H](Cc1ccc2ccccc2c1)C(=O)NCCCC[C@@H](CO)N(CC(C)C)S(=O)(=O)c1ccc(N)c(F)c1 [Example 116, (1S,5S) (1-{5-[(4-Amino-3-fluoro-benzenesulfonyl)-isobutyl-amino]-6-hydroxy-hexylcarbamoyl}-2-naphthalen-2-yl-ethyl)-carbamic Acid Methyl Ester] | < 3.8 | –
